Experiments:
[1] = molecular target: T1, Human GLP-1 receptor (Homo sapiens, UniProt P43220); assay: In vitro Human GLP-1 R agonist activity (cyclic AMP determination) in CHO/human GLP1R cells; type: cell-based
T1 construct: The full-length cDNA was cloned in pcDNA3.1(+); expressed in transfected cells

[2] = Stability in liver microsomes; type: in vitro ADME; details: 2 μM peptidomimetic, human liver microsomes, 37° C.; for half-life at 2 μM: pH 7.8, read-out: half-life (t1/2) when incubated with liver microsomes
Procedure: (§1) Reactions were terminated by the addition of TFA/H2O (15 mL, 10% (v/v)). […] The column was equilibrated with TFA/H20, at a flow rate of 1 mL/min.

[3] = molecular target: T2, human glucagon receptor (Homo sapiens, UniProt P47871); assay: In vitro human glucagon antagonist activity (inhibition of cAMP production) in CHO/human glucagon R cells; type: cell-based; details: with saturated concentration of glucagon peptide
T2 construct: The full-length cDNA was cloned in pcDNA3.1 (Invitrogen); expressed in transfected cells
T2 sequence (P47871 26-477): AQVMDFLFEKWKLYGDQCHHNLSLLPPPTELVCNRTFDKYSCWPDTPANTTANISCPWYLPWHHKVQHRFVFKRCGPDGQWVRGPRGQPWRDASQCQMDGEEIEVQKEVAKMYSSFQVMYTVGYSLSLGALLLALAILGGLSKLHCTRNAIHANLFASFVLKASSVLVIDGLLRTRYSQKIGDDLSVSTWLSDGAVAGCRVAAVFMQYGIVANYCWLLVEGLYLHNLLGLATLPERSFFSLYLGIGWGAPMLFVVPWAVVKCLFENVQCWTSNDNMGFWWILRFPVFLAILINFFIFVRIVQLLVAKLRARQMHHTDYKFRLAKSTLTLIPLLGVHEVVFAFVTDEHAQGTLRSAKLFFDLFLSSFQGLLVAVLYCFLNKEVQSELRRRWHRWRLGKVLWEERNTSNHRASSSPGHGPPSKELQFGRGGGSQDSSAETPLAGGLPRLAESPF

[4] = Stability in human plasma; type: in vitro ADME; details: 2 μM peptidomimetic, pooled human plasma, 37° C.; for half-life at 2 μM: pH 7.8, read-out: half-life (t1/2) when incubated with human plasma
Procedure: as §1

[5] = molecular target: DPP IV (Homo sapiens, UniProt P27487); assay: Stability against DPP IV enzyme; type: in vitro ADME; details: 37° C.; for % degradation of peptidomimetics in 24 h when incubated with DPP-IV enzyme: 2 μM peptidomimetic; for half-life at 2 μM: DPP IV enzyme, pH 7.8, 2 μM peptidomimetic, read-out: half-life (t1/2) when incubated with DPP-IV enzyme
Sequence of DPP IV (P27487 whole entry, species assumed): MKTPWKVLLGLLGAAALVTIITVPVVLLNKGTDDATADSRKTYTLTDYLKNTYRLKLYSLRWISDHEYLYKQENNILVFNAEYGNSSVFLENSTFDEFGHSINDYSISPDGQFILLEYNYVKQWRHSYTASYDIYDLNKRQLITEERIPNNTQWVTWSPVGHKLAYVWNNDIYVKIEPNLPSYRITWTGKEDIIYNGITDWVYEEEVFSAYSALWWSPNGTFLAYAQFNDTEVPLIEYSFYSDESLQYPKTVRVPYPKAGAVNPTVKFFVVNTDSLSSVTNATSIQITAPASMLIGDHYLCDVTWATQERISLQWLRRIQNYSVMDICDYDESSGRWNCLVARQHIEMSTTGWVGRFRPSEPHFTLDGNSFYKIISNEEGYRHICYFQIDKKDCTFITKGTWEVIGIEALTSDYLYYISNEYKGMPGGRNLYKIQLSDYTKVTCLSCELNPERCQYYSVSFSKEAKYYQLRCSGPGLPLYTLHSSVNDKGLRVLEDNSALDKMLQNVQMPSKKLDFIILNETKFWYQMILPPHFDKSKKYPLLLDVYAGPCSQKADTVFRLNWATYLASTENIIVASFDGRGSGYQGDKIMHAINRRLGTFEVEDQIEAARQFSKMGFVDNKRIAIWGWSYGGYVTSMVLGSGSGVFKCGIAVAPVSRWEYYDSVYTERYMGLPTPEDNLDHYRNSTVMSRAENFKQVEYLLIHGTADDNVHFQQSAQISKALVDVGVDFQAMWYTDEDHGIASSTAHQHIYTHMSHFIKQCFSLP
Procedure: as §1

[6] = Stability in simulated intestinal fluid; type: in vitro ADME; details: 2 μM peptidomimetic, simulated intestinal fluid pH 7.5, 37° C.
Procedure: as §1

[7] = Stability in simulated gastric fluid; type: in vitro ADME; details: 2 μM peptidomimetic, simulated gastric fluid pH 1.5, 37° C.
Procedure: as §1

[8] = system: RIN5F (Rat Insulinoma) cells; assay: In vitro glucose-dependent insulin secretion (RIN5F cell assay screening protocol); type: cell-based; details: 16.7 mM glucose load

T1 sequence (P43220 24-463): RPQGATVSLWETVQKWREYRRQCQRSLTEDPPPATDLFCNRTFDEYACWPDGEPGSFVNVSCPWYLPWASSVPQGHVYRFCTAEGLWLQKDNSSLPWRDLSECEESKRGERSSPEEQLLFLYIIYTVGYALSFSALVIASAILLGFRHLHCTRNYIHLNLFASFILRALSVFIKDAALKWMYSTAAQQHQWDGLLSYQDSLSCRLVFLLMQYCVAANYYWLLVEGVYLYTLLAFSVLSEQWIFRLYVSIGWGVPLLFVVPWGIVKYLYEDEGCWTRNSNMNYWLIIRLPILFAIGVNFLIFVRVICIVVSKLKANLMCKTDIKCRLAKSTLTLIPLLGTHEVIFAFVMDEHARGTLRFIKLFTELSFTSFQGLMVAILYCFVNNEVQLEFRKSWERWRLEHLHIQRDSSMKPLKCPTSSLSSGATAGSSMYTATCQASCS

| SMILES | Human GLP-1 R activity (cAMP release), % activity with respect to control ([1]; 1 nM test compound) [%] | Human GLP-1 R activity (cAMP release), % activity with respect to control ([1]; 10 nM test compound) [%] | Human GLP-1 R activity (cAMP release), % activity with respect to control ([1]; 100 nM test compound) [%] | Human GLP-1 R activity (cAMP release), % activity with respect to control ([1]; 1 μM test compound) [%] | Human GLP-1 R activity (cAMP release), % activity with respect to control ([1]; 10 μM test compound) [%] | % degradation of peptidomimetics in 24 h when incubated with liver microsomes [2] [%] | half-life at 2 μM [2] [min] | Human Glucagon receptor antagonistic activity shown as inhibition of cAMP production of Glucagon peptide ([3]; 1 nM test compound) [pmol/ml/μg prt] | Human Glucagon receptor antagonistic activity shown as inhibition of cAMP production of Glucagon peptide ([3]; 10 nM test compound) [pmol/ml/μg prt] | Human Glucagon receptor antagonistic activity shown as inhibition of cAMP production of Glucagon peptide ([3]; 100 nM test compound) [pmol/ml/μg prt] | Human Glucagon receptor antagonistic activity shown as inhibition of cAMP production of Glucagon peptide ([3]; 1 μM test compound) [pmol/ml/μg prt] | Human Glucagon receptor antagonistic activity shown as inhibition of cAMP production of Glucagon peptide ([3]; 10 μM test compound) [pmol/ml/μg prt] | % degradation of peptidomimetics in 24 h when incubated with human plasma [4] [%] | half-life at 2 μM [4] [min] | % degradation of peptidomimetics in 24 h when incubated with DPP-IV enzyme [5] [%] | half-life at 2 μM [5] [min] | % degradation of peptidomimetics in 24 h when incubated with simulated intestinal fluid [6] [%] | % degradation of peptidomimetics in 24 h when incubated with simulated gastric fluid [7] [%] | Insulin secretion ([8]; 0.1 nM test compd.) [pg/µg/h] | Insulin secretion ([8]; 1 nM test compd.) [pg/µg/h] | further results |
| --- | --- | --- | --- | --- | --- | --- | --- | --- | --- | --- | --- | --- | --- | --- | --- | --- | --- | --- | --- | --- | --- |
| CCc1cc(OC)ccc1-c1ccc(CC(NC(=O)[C@H](CC(=O)O)NC(=O)[C@H](CO)NC(=O)[C@@H](NC(=O)C(C)(Cc2ccccc2F)NC(=O)[C@@H](NC(=O)CNC(=O)C(CCC#N)NC(=O)C(C)(C)NC(=O)[C@@H](N)Cc2c[nH]cn2)[C@@H](C)O)[C@H](C)O)C(=O)NC(CCCc2ccccc2F)C(N)=O)cc1 (single isomer, unassigned) [compound 120] | 99 ± 0.12 | 99 ± 0.15 | 99 ± 0.18 | 99 ± 0.03 | 99 ± 0.09 | 80 | 120 | 0 | 0 | 0 | 0 | 0 | 00 | > 1440 | 00 | > 1440 | 00 | 41 | 16.3 ± 0.15 | 22.4 ± 0.21 | half-life at 2 μM ([6]; read-out: half-life (t1/2) when incubated with simulated intestinal fluid): > 1440 min; half-life at 2 μM ([7]; read-out: half-life (t1/2) when incubated with simulated gastric fluid): 240 min; Insulin secretion ([8]; 10 nM test compd.): 36.2 ± 0.11 pg/µg/h |
| CCc1cc(OC)ccc1-c1ccc(CC(NC(=O)[C@H](CC(=O)O)NC(=O)[C@H](CO)NC(=O)[C@@H](NC(=O)C(C)(Cc2ccccc2F)NC(=O)[C@@H](NC(=O)CNC(=O)C(CCC#N)NC(=O)C(C)(C)NC(=O)[C@@H](N)Cc2c[nH]cn2)[C@H](C)O)[C@H](C)O)C(=O)N(C)C(CCCc2ccccc2)C(N)=O)cc1 (single isomer, unassigned) [compound 130] | 39 ± 0.10 | 81 ± 0.08 | 89 ± 0.09 | 96 ± 0.11 | 99 ± 0.16 | 79 | 60 | 5 ± 0.04 | 3 ± 0.02 | 1 ± 0.11 | 0 | 0 | 78 | 480 | 76 | 540 | 55 | 12 | 17.1 ± 0.11 | 23.1 ± 0.16 | half-life (t1/2) when incubated with simulated intestinal fluid [6]: (6) h; half-life (t1/2) when incubated with simulated gastric fluid [7]: (8) h; Insulin secretion ([8]; 10 nM test compd.): 37.0 ± 0.29 pg/µg/h |
| CCc1cc(OC)ccc1-c1ccc(CC(C(=O)N(C)C(CCCc2ccccc2)C(N)=O)N(C)C(=O)[C@H](CC(=O)O)N(C)C(=O)[C@H](CO)NC(=O)[C@@H](NC(=O)C(C)(Cc2ccccc2F)NC(=O)[C@@H](NC(=O)CNC(=O)C(CCC#N)NC(=O)C(C)(C)NC(=O)[C@@H](N)Cc2c[nH]cn2)[C@H](C)O)[C@H](C)O)cc1 (single isomer, unassigned) [compound 154] | 60 ± 0.12 | 92 ± 0.15 | 98 ± 0.18 | 99 ± 0.03 | 99 ± 0.09 | 83 | 60 | 9 ± 0.11 | 6 ± 0.12 | 5 ± 0.14 | 3 ± 0.22 | 0 | 75 | 480 | 74 | 540 | 46 | 12 | 16.1 ± 0.22 | 22.1 ± 0.26 | half-life (t1/2) when incubated with simulated intestinal fluid [6]: (6) h; half-life (t1/2) when incubated with simulated gastric fluid [7]: (8) h; Insulin secretion ([8]; 10 nM test compd.): 36.0 ± 0.36 pg/µg/h |
| CCc1cc(OC)ccc1-c1ccc(CC(NC(=O)[C@H](CC(=O)O)NC(=O)[C@H](CO)NC(=O)[C@@H](NC(=O)C(C)(Cc2ccccc2F)NC(=O)[C@@H](NC(=O)CNC(=O)C(CCC#N)NC(=O)C(C)(C)NC(=O)[C@@H](N)Cc2c[nH]cn2)[C@H](C)O)[C@H](C)O)C(=S)NC(CCCc2ccccc2)C(N)=O)cc1 (single isomer, unassigned) [compound 166] | 96 ± 0.02 | 99 ± 0.46 | 99 ± 0.41 | 99 ± 0.66 | 99 ± 0.03 | 77 | 60 | 19 ± 0.03 | 17 ± 0.08 | 15 ± 0.01 | 14 ± 0.02 | 12 ± 0.11 | 70 | 480 | 86 | 540 | 41 | 15 | 15.4 ± 0.14 | 21.2 ± 0.18 | half-life (t1/2) when incubated with simulated intestinal fluid [6]: (6) h; half-life (t1/2) when incubated with simulated gastric fluid [7]: (8) h; Insulin secretion ([8]; 10 nM test compd.): 35.6 ± 0.17 pg/µg/h |
